Measurements published in patent publication US20190008810A1, “METHOD FOR PREVENTION, TREATMENT AND ALLEVIATION OF INFECTIOUS DISEASES AND DISORDERS” (REPLICON HEALTH OY, priority 2016, published 2019).

Columns and labels:
intraocular pressure = test: Intraocular pressure (IOP) in glaucoma, S1; format: in vivo, human
Text: FIG. 12: Numerical values of the reduction in IOP in Glaucoma after DGA Administration.
The same seems to be true for the efficacy of glaucoma therapy in FIG. 12.

[1] = tested on: eimeria acervulina, eimeria maxima and eimeria tenella; test: Coccidial challenge in broiler chickens, Example 1g; format: in vivo; conditions: for overall lesion score, difference to 0-control: day 21
[2] = 4-day healthy human nutritional test, blood bilirubin; format: in vivo; conditions: 5-6 mg/kg/twice a day
Procedure: S4 had already participated in 4-day healthy volunteer test with the DGA Activation. In that earlier non-acute DGA dosing experiment the last dose of D-glyceric acid mixed into water was received previous night, i.e. 10-12 hours before the blood test. In this test the positive effects of the DGA Activation in health/subclinical stress were observed. […] This was the case for all tested subjects including S1 in Examples 1b-1d (see Table 1e below).

[3] = tested on: ethanol-dosed gastric cells; conditions: in vitro study, Habe et al.; cited from earlier work
CRP = test: Blood CRP in continuous IPA/Dry Eye disease model; format: in vivo, mice
Procedure: Tear volume was measured for groups 3 and 4 and later comparison results for group 2 were received. The blood samples were collected from saphenous vein on day 5 (prior the treatment) and on day 7, just prior anesthesia and during the perfusion (cardiac puncture). On day 7, the animals were terminally anesthetized and transcardially perfused. Plasma was separated in all collected blood samples and kept frozen at −80° C. until the measurements. CRP measurements were performed using mouse CRP ELISA kit. […] In addition, animals were monitored daily for general health status. The lacrimal glands were embedded into paraffin, sectioned, stained and analyzed for possible pathology.
In this Example, CRP results from 3 separate preclinical tests are presented and analyzed. […] CRP present in mouse serum samples were analyzed using mouse CRP ELISA kit (GWB-3B960E, Genway Biotech Inc.). […]
In two other CRP tests, the effect of the DGA Activation in two disease models, continuous vs. discontinuous was analyzed. […] Logarithmic change of blood CRP during the 7-day disease follow up period of each mouse in all groups was calculated and the averages are presented in FIGS. 4b and 4c. […]
Brief description of the disease models: 1) continuous IPA -model (see Example 1a) and 2) discontinuous MPTP/PD -model. […] Diet consumption per cage is monitored carefully before and during the study follow-up period. […]

[4] = 3-week safety feeding study with 80 rats; format: in vivo; conditions: three doses mixed into chow, 3 weeks; highest more than 100 times human doses
Procedure: Before initiating any clinical tests full proof of safety was received from 3 week in vivo feeding experiments with rats. This 3-week safety study with 80 rats was conducted in Finnish National Institute of Health with three different D-glyceric acid doses mixed into chow. […] Highest doses with rats in the safety study were more than 100 times the doses used for humans in any of the shorter tests presented here.

## O=C(O)[C@H](O)CO [DGA, D-glyceric acid]
Intraocular pressure; acute dose 1*200 mg
  IOP reduction, sufficiency of acute dose: not necessarily sufficient
Intraocular pressure; first measurement under the full DGA Activation
  IOP compared to relevant control measurement: very significant reduction in IOP
[1]; DGA1 group
  mortality after 14 days: no mortality
  oocyst count at 7 and 11 days post infection: decreased in DGA1 group already in 7 days to similar levels than in P-control
  oocyst count at 5 days (acute phase): less than in 0-control
  overall lesion score, difference to 0-control: statistically significant only in P-control
[1]; DGA1 group, appr. 9 mg/kg/day DGAcs in feed, 14-35, 21-35, 28-35 days, p-values 0.04 to 0.05
  feed conversion rate (FCR) vs 0-control: statistically significantly better
[1]; DGA1 group, p-value 0.002
  body weight gain (14-35 days) vs 0-control: statistically very significantly higher
[1]; DGA1 group, pairwise t-test p 0.04
  difference in oocyst counts after the infection vs 0-control: statistically significant
[1]; DGA½ group
  number of oocyst in 7 and 11 day measurements: declined to almost similar levels than in P-control
  overall lesion score, difference to 0-control: statistically significant only in P-control
[1]; DGA½ group, appr. 4.5 mg/kg/day
  feed conversion rate (FCR) vs 0-control: better compared to 0-control
[1]; DGA½ group, one bird clearly ill at slaughtering
  mortality after 14 days: no mortality
[1]; DGA½ group, pairwise t-test p 0.03
  difference in oocyst counts after the infection vs 0-control: statistically significant
[2]; subject S1
  S-Bil-Kj, 4 day change from zero control: −17.4%
[2]; subject S1, fasting blood, non-acute
  S-Bil, 4 day change from zero control: −19.1%
[2]; subject S2
  S-Bil, 4 day change from zero control: −22.8%
  S-Bil-Kj, 4 day change from zero control: −23.3%
[2]; subject S3
  S-Bil, 4 day change from zero control: −58.1%
  S-Bil-Kj, 4 day change from zero control: −58.4%
[2]; subject S4
  S-Bil, 4 day change from zero control: −12.6%
  S-Bil-Kj, 4 day change from zero control: −8.8%
[3]
  viability of ethanol-dosed gastric cells: can increase viability of ethanol-dosed gastric cells
CRP; 4+7-day administration
  survival and health parameters: improved survival and health parameters
CRP; 7-day IPA after 4-day priming, p-value=0.027
  blood CRP change vs 0-control: increased statistically significantly
[4]
  adverse health effects (feed intake, body weight development): No adverse health effects were noticed
